In US20100160431A1, “Methods and Compositions for the Treatment of Viral Infections” (priority 2006, published 2010):

Assays:
[1] = Release profile of amantadine and oseltamivir combination (USP II Paddle system, water); type: physicochemical
From the text: The cumulative fraction is the amount of drug substance released from the formulation matrix to the serum or gut environment (e.g., U.S. Pat. No. 4,839,177) or as measured with a USP II Paddle system using water as the dissolution medium.

[2] = in vivo; cited from earlier work
[3] = Time to steady state concentration with extended release amantadine or rimantadine; details: patient with influenza A; 100 mg or more once daily; formulated as in Example 5
[4] = cited from earlier work; for Human PK T½ / Tmax: humans

| SMILES | cum. fraction ([1]; Time 1) | cum. fraction ([1]; Time 2) | cum. fraction ([1]; Time 4) | cum. fraction ([1]; Time 8) | cum. fraction ([1]; Time 12) | cum. fraction ([1]; Time 16) | cum. fraction ([1]; Time 20) | cum. fraction ([1]; Time 24) | Dose Dependent Toxicity [2] | time to therapeutically effective steady state serum concentration [3] | T½ ([4]; head of Table 4) | Human PK T½ [4] [h] | Tmax [4] [h] |
| --- | --- | --- | --- | --- | --- | --- | --- | --- | --- | --- | --- | --- | --- |
| NC12CC3CC(CC(C3)C1)C2 [Amantadine, amantadine] | 0.2 | 0.3 | 0.4 | 0.5 | 0.6 | 0.7 | 0.8 | 0.9 |  |  |  |  |  |
| CC(N)C12CC3CC(CC(C3)C1)C2 (centres unmarked) [Rimantadine, rimantadine] |  |  |  |  |  |  |  |  | Insomnia | three |  |  |  |
| CCOC(=O)C1=C[C@@H](OC(CC)CC)[C@H](NC(C)=O)[C@@H](N)C1 [oseltamivir/TAMIFLU ®, oseltamivir] | 0.1 | 0.15 | 0.2 | 0.35 | 0.5 | 0.65 | 0.8 | 1 |  |  | T½ = 3 hrs | 3 | 3 to 4 |
| CC(=O)N[C@H]1[C@H]([C@H](O)[C@H](O)CO)OC(C(=O)O)=C[C@@H]1NC(=N)N [zanamivir/RELENZA ®, zanamivir] |  |  |  |  |  |  |  |  |  |  |  | 2.5 to 5.1 | 1 to 2 |
